Measured values from patent US8697158B2, “Mineral amino acid polysaccharide complex” (Melaleuca, Inc., priority 2008, dated 2014).

Columns and labels:
[1] = Hydroxyl radical formation (EPR, DMPO spin trapping); settings: metal 800 μM, DMPO 18.7 mM, H2O2 61 mM, HEPES pH 7.2; relative to AAC
Protocol: The rate of hydroxyl radical formation catalyzed by a complex comprising an iron- or copper-amino acid inulin complex was compared to the iron- or copper-amino acid compound alone.
Mineral (Cu or Fe) was dissolved in 10 mM HEPES buffer (pH 7.2) containing DMPO. Iron and copper were used in the form of amino acid compounds (i.e., glycinates; AAC) and as amino acid inulin complexes (1:9 w/w; AAC/OF). Hydrogen peroxide was added 90 seconds prior to measurement.
The spin trapping reagent—5,5-dimethylpyrroline-N-oxide (DMPO) was used for monitoring hydroxyl radical.
The relative signal amplitudes for DMPO/hydroxyl radical adduct, which can be correlated to the concentration of hydroxyl radical present in the solution, was measured (Table 3).

[2] = Ascorbyl radical kinetics (EPR), iron-catalyzed ascorbic oxidation; settings: for relative amplitude of the ascorbyl radical signal: iron solution 0.9 mM, ascorbic acid 4.04 mM, HEPES pH 7.2
Protocol: Samples of iron(II) sulfate, iron(II) bis-glycinate (FeAAC), and an iron(II) bis-glycinate inulin complex (FeAAC/OF; ratio 1:10 w/w) were analyzed using EPR spectroscopy to determine their ability to generate the ascorbate radical, i.e. to catalyze ascorbic oxidation. The samples were dissolved in 10 mM HEPES buffer (pH 7.2) to a final concentration 0.9 mM of iron.
The iron solutions were mixed with the ascorbic acid solution, and the mixture was transferred into capillary tubes for measurement. Multiple readings were performed over 30 minutes.
EPR measurements were performed in 50 μL capillary tubes at room temperature using a Bruker ER-200 X-band EPR spectrometer.
The relative amplitudes of the ascorbyl radical signal, which can be correlated to the concentration of ascorbyl radical present in the solution, were measured (Table 2).

[3] = Mineral solubility at conditions close to physiological; settings: one hour at pH 1-1.2, then one hour at pH 7-7.2; supernatant after centrifugation
Protocol: Two forms of zinc, copper, and iron were tested for solubility at conditions close to physiological. […] Samples, in an amount equivalent to 20 tablets, were suspended in 20 mL of water. The pH was adjusted to 1-1.2 and maintained for one hour, simulating a gastric environment. After the first hour, the pH was adjusted to 7-7.2 and maintained for another hour, simulating an intestinal environment. The product was then centrifuged and the supernatant taken for analysis.

[4] = Copper-mediated oxidation of Trolox (Fenton system, EPR)
Protocol: The one-electron oxidation of Trolox results in the formation of a phenoxyl radical that is readily detected by EPR. All EPR measurements were done in using a Bruker ER-200 X-band EPR spectrometer. Samples (50 μL) in capillary tubes (0.5 mm i.d.) were examined at room temperature.

NCC(=O)[O-].NCC(=O)[O-].[Cu+2] [Cu AAC]
relative signal amplitude for DMPO/hydroxyl radical adduct [1]: 100%

NCC(=O)[O-].NCC(=O)[O-].[Fe+2] [FeAAC, iron(II) bis-glycinate]
stabilization (lifetime) of the ascorbyl radical ([2]; compared with the iron sulfate): longer period of time | relative amplitude of the ascorbyl radical signal ([2]; time 1.5 min): 100% | relative amplitude of the ascorbyl radical signal ([2]; time 3.5 min): 74% | relative amplitude of the ascorbyl radical signal ([2]; time 5.5 min): 65% | relative amplitude of the ascorbyl radical signal ([2]; time 10.0 min): 47% | relative amplitude of the ascorbyl radical signal ([2]; time 14.0 min): 33% | relative amplitude of the ascorbyl radical signal ([2]; time 20.0 min): 19% | relative amplitude of the ascorbyl radical signal ([2]; time 28.0 min): 19% | relative signal amplitude for DMPO/hydroxyl radical adduct [1]: 100%

O=S(=O)([O-])[O-].[Fe+2] [FeSO4, iron(II) sulfate]
relative amplitude of the ascorbyl radical signal ([2]; time 1.5 min): 100% | relative amplitude of the ascorbyl radical signal ([2]; time 3.5 min): 76% | relative amplitude of the ascorbyl radical signal ([2]; time 5.5 min): 64% | relative amplitude of the ascorbyl radical signal ([2]; time 10.0 min): 24% | relative amplitude of the ascorbyl radical signal ([2]; time 14.0 min): 14% | relative amplitude of the ascorbyl radical signal ([2]; time 20.0 min): 10% | relative amplitude of the ascorbyl radical signal ([2]; time 28.0 min): 5%

[O-2].[Zn+2] [Zinc Inorganic Form, zinc oxide]
percent of solubilized mineral [3]: 1.2%

gluconate
EPR signal of the Trolox free radical, reduction compared to CuSO4 [4]: about 15%
